According to US7579329B2, “P450RAI-2 (P450 cytochrome 26B), encoding nucleic acid molecules and methods and uses thereof” (Cytochroma Inc., priority 1999, dated 2009):

Legend:
CYP26B (P450RAI-2) = biological target: T1, CYP26B (P450RAI-2) (Homo sapiens, UniProt Q9NR63); assay: [3H]-RA-metabolism inhibition assay using microsomes from Hela-CYP26B (stable) cells; conditions: 5 μg microsomes, NADPH, 1 hour at 37° C., water-soluble metabolites
T1 sequence (Q9NR63 1-512): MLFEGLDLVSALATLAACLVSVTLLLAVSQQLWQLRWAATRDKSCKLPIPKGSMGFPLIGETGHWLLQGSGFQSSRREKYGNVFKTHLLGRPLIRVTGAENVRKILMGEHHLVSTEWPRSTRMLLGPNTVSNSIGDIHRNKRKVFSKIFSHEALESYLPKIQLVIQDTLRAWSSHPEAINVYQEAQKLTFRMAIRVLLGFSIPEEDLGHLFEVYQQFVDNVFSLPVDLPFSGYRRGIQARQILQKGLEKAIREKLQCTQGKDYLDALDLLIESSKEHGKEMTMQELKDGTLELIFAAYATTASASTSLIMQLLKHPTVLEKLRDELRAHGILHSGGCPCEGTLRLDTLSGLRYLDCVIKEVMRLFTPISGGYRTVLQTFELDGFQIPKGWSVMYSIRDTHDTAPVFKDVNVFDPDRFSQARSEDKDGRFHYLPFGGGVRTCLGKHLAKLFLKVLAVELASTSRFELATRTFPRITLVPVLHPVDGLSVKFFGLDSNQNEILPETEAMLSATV
Description: [^3H]-RA-metabolism inhibition assay was carried outusing microsomes prepared from Hela-CYP26B (stable) cells. […] The reaction was started by adding NADPH for 1 hour at 37° C. and then total reinoids were extracted using Bligh-Dyer procedure and water-soluble metabolites counted. […] Ketoconazol is an inhibitor of CYP26B.

P450RAI-2 transcripts = assay: Induction of P450RAI-2 transcripts in human cell lines (Northern blot, RT-PCR); format: cell-based; conditions: MCF-7 cells, 10^-6 M retinoid, 12 hours, northern blot
Text: HPK1a-ras (ras-transformed human keratinocyte), COS-1 (African green monkey kidney and V79 cells (Chinese Hamster lung) were maintained in DMEM supplemented with 10% FBS (5% for V79). WTE (human non-small cell lung carcinoma and SW900 (human non-small cell lung carcinoma) cells were maintained in RPMI supplemented with 10% FBS. SK-Luci-6 (human non-small cell lung carcinoma) and SK-MES-1 (human non-small cell lung carcinoma) cells in RPMI with 5% FBS. NB4 (human acute prmyelocytic leukemia-serived) cells were maintained in RPMI supplemented with 10% FBS and gentamicin ([…]) HeLa cells (human cervical carcinoma) were maintained in MEM supplemented with 10% FBS. Previous cell lines were supplemented with penicillin (50 units/ml) streptomycin (50 ug/ml) and fungizone (0.1% final concentration). MCF-7 cells (human breast epithelial adenocarcinoma) were grown in MEM supplemented with 10% FBS, insulin (10 ng/ml), sodium pyruvate (0.5 mM), non-essential amino acids (100 nM), L-glutamine (2 mM), penicillin (5 ug.ml), streptomycin (5 ug/ml), fungizone (200 ng/ml), and gentamicin ([…]). All reagents were supplied by Life Technologies, NY. Cells lines were maintained at 37° C. in an atmosphere of 5% CO2 and 95% air.
Gels were photographed under ultraviolet light and then blotted onto Hybond ECL nitrocellulose membrane (Amersham Pharmacia Biotech, UK) and fixed to the membrane by baking at 80° C. for 2 hours under vacuum. […] Full length P450RAI-1 and P450RAI-2 cDNA were labeled with α-[^32P]dATP using Prime-A-Gene Labeling System (Promega, WI). The blot was washed two times for 15 minutes in 2×SSC, 0.1% SDS at room temperature then for 15 minutes at 60° C. in 0.1×SSC, and 0.1% SDS and exposed at −70° C. for 19 hours to Kodak X-Omat AR film (Eastman Kodak Company, NY).
The regulation of P450RAI-2 expression by various retinoids was checked in three different human cell lines, SKMES, CALU-1 and MCF-7. […] The blot was washed as follows: 2×SSPE & 0.1% SDS two washes of 5 minutes each; 1×SSPE & 0.1% SDS one wash of 15 minutes at 65° C.; 0.1×SSPE & 0.1×SDS one wash of 15 minutes at 65° C.
The blot was washed as follows: 2×SSC & 0.1% SDS two washes of 5 minutes each at room temperature; 1×SSC & 0.1% SDS one wash of 15 minutes at 65° C.; 0.1×SSC & 0.1% SDS three washes of 15 minutes each at 65° C.
The blot was washed as follows: 2×SSPE & 0.1% SDS two washes of 5 minutes each; 1×SSPE & 0.1% SDS one wash of 15 minutes at 65° C.; 0.1×SSPE & 0.1×SDS one wash of 15 minutes at 65° C.
The final primer concentrations were 45 μM for the P450RAI-2 primers and 11.25 μM for the GAPDH-specific primers.

P450RAI-1 = biological target: T2, P450RAI-1 (Homo sapiens, UniProt O43174); assay: Competitive inhibition of [3H]all-trans-RA metabolism in COS-1 cells transfected with pcDNA3.1-P450RAI-1; format: cell-based; design: expressed in transfected cells; host or cells: COS-1 (African green monkey kidney), transient; conditions: COS-1 cells expressing P450RAI-1, 2 nM [3H]all-trans-RA
T2 sequence (O43174 1-497): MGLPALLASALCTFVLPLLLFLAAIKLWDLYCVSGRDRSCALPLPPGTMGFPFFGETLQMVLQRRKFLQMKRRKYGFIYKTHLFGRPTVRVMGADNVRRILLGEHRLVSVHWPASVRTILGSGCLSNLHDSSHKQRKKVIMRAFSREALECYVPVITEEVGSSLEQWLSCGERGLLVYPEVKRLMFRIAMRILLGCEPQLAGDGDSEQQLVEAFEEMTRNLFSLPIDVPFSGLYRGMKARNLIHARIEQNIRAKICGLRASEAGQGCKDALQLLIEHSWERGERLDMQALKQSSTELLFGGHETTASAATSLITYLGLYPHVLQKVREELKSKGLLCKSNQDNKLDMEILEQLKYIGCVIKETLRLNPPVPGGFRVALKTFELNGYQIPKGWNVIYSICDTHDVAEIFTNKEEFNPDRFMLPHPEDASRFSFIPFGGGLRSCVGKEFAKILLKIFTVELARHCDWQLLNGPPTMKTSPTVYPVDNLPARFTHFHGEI
Description: COS-1 cells were transfected with either pcDNA3.1-P450RAI-1 or pcDNA3.1-P450RAI-2 in 6-well tissue culture plates as described above. 48 hours post-transfection cells were harvested, pooled, washed with DMEM medium and replated into duplicate 48-well plates with 5×10^5 cells per well.

P450RAI-2 = biological target: T3, P450RAI-2 (Homo sapiens, UniProt Q9NR63); assay: Competitive inhibition of [3H]all-trans-RA metabolism in COS-1 cells transfected with pcDNA3.1-P450RAI-2; format: cell-based; design: The full-length human P450RAI-2 cDNA was cloned into the eukaryotic expression vector pcDNA 3.1; expressed in transfected cells; host or cells: COS-1 (African green monkey kidney), transient; conditions: COS-1 cells expressing P450RAI-2, 2 nM [3H]all-trans-RA
T3 sequence (Q9NR63 1-512): T1 sequence (Q9NR63 1-512)
Text: COS-1 cells were transfected with either pcDNA3.1-P450RAI-1 or pcDNA3.1-P450RAI-2 in 6-well tissue culture plates as described above.

With CC1=C(/C=C/C(C)=C/C=C/C(C)=C\C(=O)O)C(C)(C)CCC1 [13-cis-RA, 13-cis retinoic acid] the “Competition of [3H]-RA metabolism in microsomes” value (CYP26B (P450RAI-2)) was “did not compete at lower concentrations”, the “Induction of P450RAI-2 expression” value (P450RAI-2 transcripts) was “induced” and the “Effectiveness as competitor of all-trans-RA metabolism” value (P450RAI-1) was “less effective than all-trans-RA”. For the same compound, the “Effectiveness as competitor of all-trans-RA metabolism” value (P450RAI-2) was “less effective than all-trans-RA”.
